Assay results published in US4504580A, “Antibiotics produced by fermentation of a novel strain of Streptomyces hygroscopicus” (Bristol-Myers Company, priority 1983, dated 1985).
Converted amounts (≈) assume the structure as drawn. Where two headings read alike, the source gives them in different places.

Key:
Format in all cases: cell-based
[1] = tested on: Bacillus subtilis PCI 219; test: MIC by serial two-fold agar dilution, B. subtilis PCI 219; conditions: Bacillus subtilis, PCI219
Description: (§1) The minimum inhibitory concentrations (MIC) of Bu-2659A, B, C, D and E were determined for a variety of gram-positive and gram-negative bacteria by the serial two-fold agar dilution method using the Steer's multi-inoculating apparatus. The inoculum was standardized as a 10^4 dilution of an overnight culture of the test organisms in Heart Infusion Broth (Difco). […] Reference antibiotics utilized in these tests included commercially available neomycin as well as its components, neomycins B and C [as used herein, the term "neomycin" means the commercial product containing neomycins B and C at an approximate ratio of 7:3], paromomycin [the commercial product containing >90% of paromomycin I and <10% of paromomycin II] and ribostamycin.

[2] = tested on: Escherichia coli NIHJ; test: MIC by serial two-fold agar dilution, E. coli NIHJ; conditions: Escherichia coli
Description: as §1

[3] = tested on: Klebsiella pneumoniae D11; test: MIC by serial two-fold agar dilution, K. pneumoniae D11; conditions: Klebsiella pneumoniae, D11
Description: as §1

[4] = tested on: Proteus mirabilis A9906; test: MIC by serial two-fold agar dilution, P. mirabilis A9906; conditions: Proteus mirabilis, A9906
Description: as §1

[5] = tested on: Micrococcus luteus PCI 1001; test: MIC by serial two-fold agar dilution, M. luteus PCI 1001; conditions: Micrococcus luteus, PCI1001
Description: as §1

[6] = tested on: Proteus morganii A9553; test: MIC by serial two-fold agar dilution, P. morganii A9553; conditions: Morganella morganii, A9553
Description: as §1

[7] = tested on: Staphylococcus aureus 209P; test: MIC by serial two-fold agar dilution, S. aureus 209P; conditions: Staphylococcus aureus, 209P
Description: as §1

[8] = tested on: Serratia marcescens A20019; test: MIC by serial two-fold agar dilution, S. marcescens A20019; conditions: Serratia marcescens, A20019
Description: as §1

[9] = tested on: Escherichia coli Juhl; test: MIC by serial two-fold agar dilution, E. coli Juhl; conditions: Escherichia coli
Description: as §1

[10] = tested on: Proteus mirabilis A9554; test: MIC by serial two-fold agar dilution, P. mirabilis A9554; conditions: Proteus mirabilis, A9554
Description: as §1

[11] = tested on: Staphylococcus aureus D136; test: MIC by serial two-fold agar dilution, S. aureus D136; conditions: Staphylococcus aureus, D136
Description: as §1

[12] = tested on: Staphylococcus aureus Smith; test: MIC by serial two-fold agar dilution, S. aureus Smith; conditions: Staphylococcus aureus
Description: as §1

[13] = tested on: Pseudomonas aeruginosa D15; test: MIC by serial two-fold agar dilution, P. aeruginosa D15; conditions: Pseudomonas aeruginosa, D15
Description: as §1

[14] = tested on: Proteus rettgeri A15167; test: MIC by serial two-fold agar dilution, P. rettgeri A15167; conditions: Providencia rettgeri, A15167
Description: as §1

[15] = tested on: Pseudomonas aeruginosa A9930; test: MIC by serial two-fold agar dilution, P. aeruginosa A9930; conditions: Pseudomonas aeruginosa, A9930
Description: as §1

[16] = tested on: Proteus vulgaris A9436; test: MIC by serial two-fold agar dilution, P. vulgaris A9436; conditions: Proteus vulgaris, A9436
Description: as §1

[17] = tested on: Micrococcus flavus D12; test: MIC by serial two-fold agar dilution, M. flavus D12; conditions: Micrococcus flavus, D12
Description: as §1

[18] = tested on: Escherichia coli JR88; test: MIC, aminoglycoside-resistant E. coli JR88; conditions: Escherichia coli, JR88
Description: as §1

[19] = tested on: gram-positive and gram-negative bacteria; test: In vitro antibacterial spectra (MIC), overall comparison, Table 7; conditions: Table 7 organisms; for activity relative to Bu-2659A: as active as Bu-2659A
Description: as §1

[20] = Table 7, Mueller-Hinton agar, read-out: MIC

SMILES | MIC [1] [µg/mL] | MIC [2] [µg/mL] | MIC [3] [µg/mL] | MIC [1, 20] [µg/mL] | MIC [2, 20] [µg/mL] | MIC [3, 20] [µg/mL] | MIC [4, 20] [µg/mL] | MIC [5, 20] [µg/mL] | MIC [6, 20] [µg/mL] | MIC [7, 20] [µg/mL] | MIC [8, 20] [µg/mL] | MIC [9, 20] [µg/mL] | MIC [10, 20] [µg/mL] | MIC [11, 20] [µg/mL] | MIC [12, 20] [µg/mL] | MIC [13, 20] [µg/mL] | MIC [14, 20] [µg/mL] | MIC [15, 20] [µg/mL] | MIC [16, 20] [µg/mL] | MIC [17, 20] [µg/mL] | also measured
NC[C@@H]1O[C@H](O[C@H]2[C@@H](O)[C@H](O[C@@H]3[C@@H](O)[C@H](N)C[C@H](N)[C@H]3O[C@H]3O[C@H](CN)[C@@H](O)[C@H](O)[C@H]3N)O[C@@H]2CO)[C@H](N)[C@@H](O)[C@@H]1O [Neomycin B, neomycin B] | < 0.05 | 1.6 (≈ 2.6 µM) | 0.2 (≈ 0.325 µM) |  |  |  |  |  |  |  |  |  |  |  |  |  |  |  |  |  | MIC [4]: 0.8 µg/mL (≈ 1.3 µM); MIC [5]: 0.8 µg/mL (≈ 1.3 µM); MIC [6]: 3.1 µg/mL (≈ 5.04 µM); MIC [7]: 0.4 µg/mL (≈ 0.651 µM); MIC [8]: 1.6 µg/mL (≈ 2.6 µM); MIC [9]: 3.1 µg/mL (≈ 5.04 µM); MIC [10]: 0.8 µg/mL (≈ 1.3 µM); MIC [11]: 0.4 µg/mL (≈ 0.651 µM); MIC [12]: 0.4 µg/mL (≈ 0.651 µM); MIC [13]: 3.1 µg/mL (≈ 5.04 µM); MIC [14]: 1.6 µg/mL (≈ 2.6 µM); MIC [15]: 3.1 µg/mL (≈ 5.04 µM); MIC [16]: 0.8 µg/mL (≈ 1.3 µM); MIC [17]: 1.6 µg/mL (≈ 2.6 µM)
NC[C@H]1O[C@H](O[C@H]2[C@H](O[C@@H]3O[C@H](CO)[C@@H](O[C@H]4O[C@H](CN)[C@@H](O)[C@H](O)[C@H]4N)[C@H]3O)[C@@H](O)[C@H](N)C[C@@H]2N)[C@H](N)[C@@H](O)[C@@H]1O [Neomycin C, neomycin C] | < 0.05 | 3.1 (≈ 5.04 µM) | 0.4 (≈ 0.651 µM) |  |  |  |  |  |  |  |  |  |  |  |  |  |  |  |  |  | MIC [4]: 1.6 µg/mL (≈ 2.6 µM); MIC [5]: 50 µg/mL (≈ 81.3 µM); MIC [6]: 3.1 µg/mL (≈ 5.04 µM); MIC [7]: 0.8 µg/mL (≈ 1.3 µM); MIC [8]: 6.3 µg/mL (≈ 10.2 µM); MIC [9]: 12.5 µg/mL (≈ 20.3 µM); MIC [10]: 3.1 µg/mL (≈ 5.04 µM); MIC [11]: 1.6 µg/mL (≈ 2.6 µM); MIC [12]: 1.6 µg/mL (≈ 2.6 µM); MIC [13]: > 100 µg/mL; MIC [14]: 1.6 µg/mL (≈ 2.6 µM); MIC [15]: 50 µg/mL (≈ 81.3 µM); MIC [16]: 1.6 µg/mL (≈ 2.6 µM); MIC [17]: 100 µg/mL (≈ 163 µM)
NC[C@H]1O[C@H](O[C@H]2[C@H](O)[C@@H](O)[C@H](N)C[C@@H]2N)[C@H](N)[C@@H](O)[C@@H]1O [Neamine, neamine] | 3.1 (≈ 9.62 µM) | 12.5 (≈ 38.8 µM) | 12.5 (≈ 38.8 µM) |  |  |  |  |  |  |  |  |  |  |  |  |  |  |  |  |  | MIC [18]: 12.5 µg/mL (≈ 38.8 µM); MIC [7]: 6.3 µg/mL (≈ 19.5 µM); MIC [10]: 25 µg/mL (≈ 77.6 µM); MIC [12]: 3.1 µg/mL (≈ 9.62 µM); MIC [15]: 400 µg/mL (≈ 1240 µM); MIC [16]: 6.3 µg/mL (≈ 19.5 µM)
NC[C@H]1O[C@H](O[C@H]2[C@H](O[C@@H]3O[C@H](CO)[C@@H](O[C@H]4O[C@H](CN)[C@@H](O)[C@H](O)[C@H]4N)[C@H]3O)[C@@H](O)[C@H](O)C[C@@H]2N)[C@H](N)[C@@H](O)[C@@H]1O [Bu-2659B, 1-deamino-1-hydroxyneomycin C] |  |  |  | 0.4 (≈ 0.65 µM) | 12.5 (≈ 20.3 µM) | 1.6 (≈ 2.6 µM) | 6.3 (≈ 10.2 µM) | > 100 | 12.5 (≈ 20.3 µM) | 3.1 (≈ 5.04 µM) | 100 (≈ 162 µM) | 50 (≈ 81.2 µM) | 6.3 (≈ 10.2 µM) | 6.3 (≈ 10.2 µM) | 3.1 (≈ 5.04 µM) | > 100 | 3.1 (≈ 5.04 µM) | > 100 | 3.1 (≈ 5.04 µM) | > 100 | activity relative to Bu-2659A [19]: approximately 1/4
NC[C@@H]1O[C@H](O[C@H]2[C@@H](O)[C@H](O[C@@H]3[C@@H](O)[C@H](O)C[C@H](N)[C@H]3O[C@H]3O[C@H](CO)[C@@H](O)[C@H](O)[C@H]3N)O[C@@H]2CO)[C@H](N)[C@@H](O)[C@@H]1O [Bu-2659C, 1-deamino-1-hydroxyparomomycin I] |  |  |  | 0.8 (≈ 1.3 µM) | 6.3 (≈ 10.2 µM) | 1.6 (≈ 2.59 µM) | 3.1 (≈ 5.03 µM) | > 100 | 6.3 (≈ 10.2 µM) | 3.1 (≈ 5.03 µM) | 6.3 (≈ 10.2 µM) | 25 (≈ 40.5 µM) | 3.1 (≈ 5.03 µM) | 6.3 (≈ 10.2 µM) | 6.3 (≈ 10.2 µM) | 25 (≈ 40.5 µM) | 3.1 (≈ 5.03 µM) | 12.5 (≈ 20.3 µM) | 1.6 (≈ 2.59 µM) | > 100 | activity relative to Bu-2659A [19]: approximately 1/4
NC[C@H]1O[C@H](O[C@H]2[C@H](O[C@@H]3O[C@H](CO)[C@@H](O)[C@H]3O)[C@@H](O)[C@H](O)C[C@@H]2N)[C@H](N)[C@@H](O)[C@@H]1O [Bu-2659E, 1-deamino-1-hydroxyribostamycin] |  |  |  | 3.1 (≈ 6.81 µM) | 50 (≈ 110 µM) | 12.5 (≈ 27.4 µM) | 25 (≈ 54.9 µM) | > 100 | 25 (≈ 54.9 µM) | 25 (≈ 54.9 µM) | > 100 | > 100 | 12.5 (≈ 27.4 µM) | 50 (≈ 110 µM) | 50 (≈ 110 µM) | > 100 | 12.5 (≈ 27.4 µM) | > 100 | 12.5 (≈ 27.4 µM) | > 100 | in vitro antibacterial activity, in words [19]: less active than components B and C
NC[C@H]1O[C@H](O[C@H]2[C@H](O[C@@H]3O[C@H](CO)[C@@H](O[C@H]4O[C@@H](CO)[C@@H](O)[C@H](O)[C@H]4N)[C@H]3O)[C@@H](O)[C@H](O)C[C@@H]2N)[C@H](N)[C@@H](O)[C@@H]1O [Bu-2659D, 1,6'"-dideamino-1,6'"-dihydroxyneomycin B] |  |  |  | 1.6 (≈ 2.59 µM) | 12.5 (≈ 20.3 µM) | 1.6 (≈ 2.59 µM) | 6.3 (≈ 10.2 µM) | 100 (≈ 162 µM) | 12.5 (≈ 20.3 µM) | 6.3 (≈ 10.2 µM) | 100 (≈ 162 µM) | 50 (≈ 81.1 µM) | 6.3 (≈ 10.2 µM) | 25 (≈ 40.5 µM) | 25 (≈ 40.5 µM) | > 100 | 3.1 (≈ 5.03 µM) | 50 (≈ 81.1 µM) | 3.1 (≈ 5.03 µM) | 100 (≈ 162 µM) | in vitro antibacterial activity, in words [19]: less active than components B and C
